Results from US20260265216A1, “NOVEL THIOREDOXIN REDUCTASE INHIBITORS” (GENEXPLAIN GMBH, priority 2021, published 2026).

Legend:
[1] = Growth suppression with selenium in culture medium; assay type: cell-based; conditions: selenium added to culture medium
Source text: To find out whether the inhibition of TrxR1 is the major mechanism of action of 1d*HCl, we addressed the question, whether stimulation of TrxR1 activity will decrease the growth suppression activity of 1d*HCl. Since TrxR is a selenium-containing enzyme and the concentration of selenium is rate-limiting for TrxR1, we added selenium to culture medium to test whether selenium will alleviate the growth suppression by 1d*HCl.

[2] = target: T1, recombinant purified TrxR1 (Homo sapiens, UniProt Q16881); experiment: TrxR1 enzymatic activity measurement in vitro; assay type: biochemical; conditions: recombinant purified enzyme in vitro
T1 construct: made in house; host or cells: Release Factor 1-depleted E. coli strain
T1 sequence (Q16881 1-499 isoform Q16881-5): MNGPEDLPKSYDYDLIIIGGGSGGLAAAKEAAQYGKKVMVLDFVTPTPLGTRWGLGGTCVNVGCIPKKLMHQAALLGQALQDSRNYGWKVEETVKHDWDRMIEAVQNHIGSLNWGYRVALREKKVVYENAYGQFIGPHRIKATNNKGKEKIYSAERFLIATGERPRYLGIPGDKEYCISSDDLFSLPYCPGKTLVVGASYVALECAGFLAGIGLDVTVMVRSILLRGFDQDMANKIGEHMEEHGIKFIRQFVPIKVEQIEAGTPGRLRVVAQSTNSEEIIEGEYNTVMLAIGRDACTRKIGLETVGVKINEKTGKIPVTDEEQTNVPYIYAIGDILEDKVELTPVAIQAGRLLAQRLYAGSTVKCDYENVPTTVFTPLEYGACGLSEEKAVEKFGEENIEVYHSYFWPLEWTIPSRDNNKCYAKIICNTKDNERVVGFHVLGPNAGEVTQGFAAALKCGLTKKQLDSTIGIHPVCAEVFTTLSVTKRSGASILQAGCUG
Protocol: TrxR1 enzyme was recombinantly produced with high Sec contents in a specific Release Factor 1-depleted E. coli strain and purified as previously described (Arnér E S J, Holmgren A, in Current Protocols in Toxicology, Maines M, Costa L, Reed D, Sassa S, Eds. (John Wiley & Sons, Inc., New York, 2000), pp. 7.4.1-7.4.14). TrxR1 and GSR (Sigma) recombinant enzyme assays were performed in a reaction buffer containing 50 mM Tris pH 7.5 with 2 mM EDTA and 0.1 mg/mL bovine serum albumin as described previously (Arnér E S J, Holmgren A, in Current Protocols in Toxicology, Maines M, Costa L, Reed D, Sassa S, Eds. (John Wiley & Sons, Inc., New York, 2000), pp. 7.4.1-7.4.14). Briefly, assays were performed in triplicate using 96-well plates, with activity inferred from absorbance changes using a Spectra Max plate reader. Results of recombinant enzyme assays were normalized to DMSO and to no enzyme controls.
We used recombinant purified TrxR1 and GR in an in vitro assay as described in methods section.

[3] = test system: cancer cells grown in hypoxia; experiment: Growth suppression under hypoxia versus normoxia; assay type: cell-based; conditions: hypoxia vs normoxia
Protocol: (§1) Breast, colon, ovarian, cervical, liver and lung carcinoma cell lines were grown in DMEM supplemented with 10% FBS, and antibiotics were cultured at 37° C. and 5% CO2. Osteosarcoma, melanoma, lymphoma, neuroblastoma and leukemia cell lines were cultured in RPMI 1640 with 10% FBS and antibiotics. An oxygen concentration of 0.3% was obtained by flushing a sealed box containing the cells with premixed gas composed of 95% nitrogen (N2) and 5% CO2 (AGA AB, Sweden). To obtain an oxygen concentration of 0.05%, the cells were flushed with the premixed gas continuously throughout the experiment.
Hypoxic tumors are often the most aggressive and resistant to chemotherapy. Therefore, we tested how cells in hypoxia will respond to the treatment by 1d*HCl. It has been shown that 1d*HCl is even more efficient in hypoxia condition. […] Thus, the compounds of the present invention are of great interest for the treatment of hypoxic solid tumors.

U2OS = experiment: Growth suppression, cancer cell line panel (resazurin); assay type: cell-based; conditions: 0.4-25.6 μM, 48 hours
Protocol: as §1
(§2) Cells were grown in 96-well plates at a density of 3000 cells per well with or without doxycycline and treated with compounds. After 48 hours of incubation the proliferative cell reagent resazurin (Thermo Fisher Scientific) was added to the cells. The degree of resazurin reduction, which reflects cell viability, was measured by microplate reader by monitoring the absorbance at 570 nm and 600 nm, according to the manufacturer.
(§3) The panel of cancer cell lines, including carcinomas of breast (MDA-MB231, SKBR3, T47D, MCF7; BT549, BT20, MDA-MB468), colon, (SW480, RKO, HT29, HCT116) ovarian (OVCAR3, OVCAR4, OVCAR8), cervical (SW756, C33A), liver (HEPG2) and lung (H23), osteosarcoma (SJSA and U2OS), melanoma (ME180), lymphoma (Raji, HDLM2), neuroblastoma (SKNAS, IMR32) and leukemia (NB4, K562) were treated with increasing concentrations of 1d*HCl: 0.4; 0.8; 1.6; 3.2; 6.4; 12.8; 25.6 μM in 96-well plates. After 48 hours of incubation the proliferative cell reagent resazurin was added to the cells. The degree of resazurin reduction, which reflects cell viability, was measured by microplate reader by monitoring the absorbance at 570 nm and 600 nm, according to the manufacturer, and the IC50 and AUC (area under curve) were determined (Table 2). As could be seen in Table 2, 1d*HCl suppressed the growth of cancer cell lines of a different origin, including carcinomas, osteosarcomas, melanoma, lymphoma, leukemia and neuroblastoma. These findings open up a possibility of the application of the present invention in anti-cancer therapy in a broad range of tumor types.

OVCAR4 = experiment: as above; assay type: cell-based; conditions: OVCAR4, 0.4-25.6 μM, 48 hours
Protocol: as §1, §2, §3

C33A = experiment: as above; assay type: cell-based; conditions: 0.4-25.6 μM, 48 hours
Protocol: as §1, §2, §3

OVCAR3 = experiment: as above; assay type: cell-based; conditions: OVCAR3, 0.4-25.6 μM, 48 hours
Protocol: as §1, §2, §3

IMR32 = experiment: as above; assay type: cell-based; conditions: IMR32, 0.4-25.6 μM, 48 hours
Protocol: as §1, §2, §3

MCF7 cells = experiment: Apoptosis detection by FACS (Annexin V); assay type: cell-based; conditions: 2 μM, 24 h
Protocol: Cells were placed on 12-well plate at a density of 30000/cm^2 and treated with compounds. After 24 h incubation cells were harvested by trypsinization, fixed with 70% ethanol, treated with RNase A (0.25 mg/ml) and stained with Annexin V according to manufacturer's instructions (Thermo Fisher Scientific). Samples were analyzed on a Becton Dickinson FACScan. Data were analyzed by the CellQuest software, version 3.2.1.
To find out whether the growth suppression by 1d*HCl is due to triggering cell death by apoptosis, we performed the Annexin V-mediated staining of phosphatidylserine, exposed on surface of cells undergoing apoptotic cell death. We detected Annexin V-positive cells using FACS.

SMILES: Cl.N#Cc1c(-c2cccnc2)[n+]([O-])c2cc(F)c(N3CCOCC3)cc2[n+]1[O-] [Compound 1d*HCl, 6-Fluoro-7-(morpholin-4-yl)-3-(pyridin-3-yl)quinoxaline-2-carbonitrile-1,4-dioxide hydrochloride]
- growth suppression in the presence of selenium [1]: less efficient in the presence of selenium
- inhibition of enzymatic activity of TrxR1 [2]: efficiently inhibited the enzymatic activity of TrxR1 in a dose- and time-dependent manner
- IC50 in hypoxia lower than that in normoxia [3]: 2.3 fold
- AUC (area under curve) (U2OS): 2.10
- AUC (area under curve) (OVCAR4): 3.7
- AUC (area under curve) (C33A): 21
- AUC (area under curve) (OVCAR3): 4.813
- AUC (area under curve) (IMR32): 6.40
- Annexin V-positive cells (apoptosis) (MCF7 cells): induced Annexin V-positive cells statistically significantly
